Data on 38 compounds can be found in patent publication US20230227449A1, “AMIDOPYRIMIDONE DERIVATIVES” (Hoffmann-La Roche Inc., priority 2020, published 2023).

A value given as a limit tells only on which side of the number the result lay.

By IC50 is commonly meant the concentration needed to halve the response being measured.

The target in this experiment is Recombinant human Mat2a (Homo sapiens, UniProt P31153). As to the kind of experiment: Determination of Mat2A activity (384 well absorbance-based assay, Biomol Green). The format is biochemical. As to conditions: 12.5 nM Mat2A, 100 μM ATP and Methionine, 2% DMSO, 120 minutes at RT, absorbance at 635 nm. As for the experimental part: Determination of Mat2A activity
Chain of Recombinant human Mat2a (P31153 whole entry): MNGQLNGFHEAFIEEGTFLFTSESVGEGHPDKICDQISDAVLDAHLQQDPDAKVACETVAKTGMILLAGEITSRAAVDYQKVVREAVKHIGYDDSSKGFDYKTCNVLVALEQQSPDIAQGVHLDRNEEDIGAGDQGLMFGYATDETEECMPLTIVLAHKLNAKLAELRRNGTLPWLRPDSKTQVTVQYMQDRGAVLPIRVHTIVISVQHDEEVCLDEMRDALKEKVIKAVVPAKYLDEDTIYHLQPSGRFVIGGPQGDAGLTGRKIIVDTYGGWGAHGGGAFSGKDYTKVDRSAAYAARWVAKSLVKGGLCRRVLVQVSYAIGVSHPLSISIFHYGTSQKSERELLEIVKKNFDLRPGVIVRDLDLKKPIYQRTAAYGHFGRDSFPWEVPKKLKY
Measurement of Mat2A inhibition is performed in 384 well format absorbance-based assay. Recombinant human Mat2a (12.5 nM) and serial diluted compounds in DMSO (range of concentrations from […] to 508 pM) or controls (DMSO) are incubated for 15 minutes at room temperature (RT) in assay buffer containing 50 mM HEPES pH 7.5, 50 mM KCl, 50 mM MgCl2, 0.01% Tween 20 and 10 mM DTT. The reaction is initiated by the addition of the combined substrates ATP and Methionine, each at a final concentration of 100 μM. Final assay condition are 12.5 nM Mat2A, 100 μM ATP and Methionine Substrates and 2% DMSO. After 120 minutes of incubation at RT, the reaction is stopped by the addition of Biomol Green. The absorbance signal is measured at λ=635 nm with a multiplate reader (BMG Pherastar reader or equivalent) after 30 min of equilibration at RT.
On to `Nc1nc(=O)n(-c2cccc3c2CCN3)c2nc(C3CC3)ccc12` [Example 157, 4-amino-7-cyclopropyl-1-(2,3-dihydro-1H-indol-4-yl)pyrido[2,3-d]pyrimidin-2-one], for which the concentration for half-maximal inhibition (IC50) was 15 nM.

On to `Cc1c(Cl)cccc1-n1c(=O)nc(N)c2ccc(C3CC3)nc21` [Example 129, 4-amino-1-(3-chloro-2-methylphenyl)-7-cyclopropylpyrido[2,3-d]pyrimidin-2-one], for which the concentration for half-maximal inhibition (IC50) is below 13 nM.

As for `CC(C1CCCO1)n1c(=O)nc(N)c2ccc(C3CC3)nc21` (centres unmarked) [Example 21, 4-amino-7-cyclopropyl-1-(1-(tetrahydrofuran-2-yl)ethyl)pyrido[2,3-d]pyrimidin-2(1H)-one], the IC50 was found to be 86 nM. Regarding `Nc1nc(=O)c(-c2ccccc2Cl)c2cc(C3CC3)ccn12` [Example 111, 4-(2-chlorophenyl)-6-cyclopropyl-1-imino-pyrido[1,2-c]pyrimidin-3-one], the half-maximal inhibitory concentration (IC50) is below 13 nM. To `Nc1nc(=O)n(C2CCCOC23CC3)c2cc(OC(F)F)ccc12` (centres unmarked) [Example 150, 4-amino-7-(difluoromethoxy)-1-(4-oxaspiro[2.5]octan-8-yl)quinazolin-2 (1H)-one] belongs 130 nM; to `COc1ccccc1-n1c(=O)nc(N)c2ccc(C3CC3)nc21` [Example 2, 4-amino-7-cyclopropyl-1-(2-methoxyphenyl)pyrido[2,3-d]pyrimidin-2(1H)-one], below 13 nM; to `Cc1cccc(-n2c(=O)nc(N)c3ccc(OC(F)F)cc32)c1` [Example 134, 4-amino-7-(difluoromethoxy)-1-(m-tolyl)quinazolin-2 (1H)-one], 20 nM. As to `C[C@H]1OCCC[C@@H]1n1c(=O)nc(N)c2ccc(C3CC3)nc21` [Example 118, 4-amino-7-cyclopropyl-1-((2R,3S)-2-methyltetrahydro-2H-pyran-3-yl)pyrido[2,3-d]pyrimidin-2 (1H)-one], the IC50 turned out to be 13 nM. The value for `Nc1nc(=O)n(-c2cccc(F)c2Cl)c2nc(C3CC3)ccc12` (single isomer, unassigned) [Example 116, (+)-4-amino-1-(2-chloro-3-fluorophenyl)-7-cyclopropylpyrido[2,3-d]pyrimidin-2 (1H)-one] was below 13 nM; that for `COc1c(C#N)cccc1-n1c(=O)nc(N)c2cc(Cl)c(C(C)C)nc21` [Example 105, 3-(4-amino-6-chloro-7-isopropyl-2-oxopyrido[2,3-d]pyrimidin-1 (2H)-yl)-2-methoxybenzonitrile] was 42 nM; that for `Cc1ncccc1-n1c(=O)nc(N)c2ccc(OC3CC3)cc21` [Example 31, 4-amino-7-cyclopropyloxy-1-(2-methylpyridin-3-yl)quinazolin-2-one] was 18 nM. For `Nc1nc(=O)n(-c2ccccc2C(F)(F)F)c2nc(C3CC3)ccc12` [Example 132, 4-amino-7-cyclopropyl-1-(2-(trifluoromethyl)phenyl)pyrido[2,3-d]pyrimidin-2 (1H)-one], the half-maximal inhibitory concentration (IC50) is below 13 nM.

Consider `Cc1c(C#N)cccc1-n1c(=O)nc(N)c2ccc(C(F)(F)F)cc21` [Example 76, 3-(4-amino-2-oxo-7-(trifluoromethyl)quinazolin-1(2H)-yl)-2-methylbenzonitrile], for which the IC50 was below 13 nM. For the compound `Nc1nc(=O)n(C2CCCOC2)c2nc(C3CC3)ccc12` (centres unmarked) [Example 12, 4-amino-7-cyclopropyl-1-(oxan-3-yl)pyrido[2,3-d]pyrimidin-2-one], the IC50 was below 13 nM.

With `Nc1nc(=O)n([C@@H]2CCCOC23CC3)c2nc(C3CC3)ccc12` [Example 141, 4-amino-7-cyclopropyl-1-[(8R)-4-oxaspiro[2.5]octan-8-yl]pyrido[2,3-d]pyrimidin-2-one], the IC50 is below 13 nM. With `COc1cccc(-n2c(=O)nc(N)c3ccc(C4CC4)nc32)c1` [Example 71, 4-amino-7-cyclopropyl-1-(3-methoxyphenyl)pyrido[2,3-d]pyrimidin-2(1H)-one], the IC50 is below 13 nM. For `Nc1nc(=O)n(-c2cc(F)ccc2F)c2nc(C3CC3)ccc12` [Example 154, 4-amino-7-cyclopropyl-1-(2,5-difluorophenyl)pyrido[2,3-d]pyrimidin-2 (1H)-one], the half-maximal inhibitory concentration (IC50) was 20 nM.

For `Cc1ncccc1-n1c(=O)nc(N)c2ccc(C(F)F)cc21` [Example 35, 4-amino-7-(difluoromethyl)-1-(2-methylpyridin-3-yl)quinazolin-2(1H)-one], the IC50 was below 13 nM. On to `COc1ccccc1-c1c(=O)nc(N)n2ccc(C(F)(F)F)cc12` [Example 92, 1-amino-4-(2-methoxyphenyl)-6-(trifluoromethyl)-3H-pyrido[1,2-c]pyrimidin-3-one], for which the IC50 worked out at 37 nM. Regarding `Cc1c(F)cccc1-n1c(=O)nc(N)c2ccc(C(F)(F)F)nc21` [Example 165, 4-amino-1-(3-fluoro-2-methylphenyl)-7-(trifluoromethyl)pyrido[2,3-d]pyrimidin-2 (1H)-one], the concentration for half-maximal inhibition (IC50) was below 13 nM. To `Cc1ncccc1-n1c(=O)nc(N)c2ccc(C(F)(F)F)nc21` [Example 32, 4-amino-1-(2-methylpyridin-3-yl)-7-(trifluoromethyl)pyrido[2,3-d]pyrimidin-2(1H)-one] belongs below 13 nM; to `Nc1nc(=O)n(C2COCCOC2)c2nc(C3CC3)ccc12` [Example 107, 4-amino-7-cyclopropyl-1-(1,4-dioxepan-6-yl)pyrido[2,3-d]pyrimidin-2-one], 25 nM; to `Cc1ccccc1-n1c(=O)nc(O)c2ccc(C3CC3)nc21` [Example 99, 7-cyclopropyl-1-(2-methylphenyl)pyrido[2,3-d]pyrimidine-2,4-dione], 65 nM. Take `COc1ncccc1-n1c(=O)nc(N)c2ccc(C3CCCCO3)nc21` (centres unmarked) [Example 54, 4-amino-1-(2-methoxy-3-pyridyl)-7-tetrahydropyran-2-yl-pyrido[2,3-d]pyrimidin-2-one]: the IC50 came out at 140 nM.

With `Cc1ncccc1-n1c(=O)nc(N)c2ccc(C3CC3)nc21` [Example 7, 4-amino-7-cyclopropyl-1-(2-methylpyridin-3-yl)pyrido[2,3-d]pyrimidin-2(1H)-one], the IC50 is below 13 nM. The value for `N#Cc1ncccc1-n1c(=O)nc(N)c2ccc(C3CC3)nc21` [Example 11, 3-(4-amino-7-cyclopropyl-2-oxopyrido[2,3-d]pyrimidin-1(2H)-yl)picolinonitrile] was below 13 nM; that for `COc1c(C#N)cccc1-n1c(=O)nc(N)c2ccc(C3CC3)nc21` [Example 19, 3-(4-amino-7-cyclopropyl-2-oxopyrido[2,3-d]pyrimidin-1(2H)-yl)-2-methoxybenzonitrile] was below 13 nM. `Nc1nc(=O)n([C@@H]2CCCCOC2)c2nc(C3CC3)ccc12` [Example 124, (R)-4-amino-7-cyclopropyl-1-(oxepan-3-yl)pyrido[2,3-d]pyrimidin-2 (1H)-one]: the IC50 is below 13 nM.

With `Cc1ncccc1-n1c(=O)nc(N)c2ccc(OC(F)(F)F)cc21` [Example 40, 4-amino-1-(2-methylpyridin-3-yl)-7-(trifluoromethoxy)quinazolin-2(1H)-one], the IC50 is below 13 nM.

Take `Nc1nc(=O)n(C2CCC(O)C2)c2nc(C3CC3)ccc12` (centres unmarked) [Example 33, 4-amino-7-cyclopropyl-1-(3-hydroxycyclopentyl)pyrido[2,3-d]pyrimidin-2(1H)-one]: the IC50 is below 13 nM.

For `Nc1nc(=O)n(-c2cccc3c2OCC3)c2nc(C3CC3)ccc12` [Example 63, 4-amino-7-cyclopropyl-1-(2,3-dihydrobenzofuran-7-yl)pyrido[2,3-d]pyrimidin-2(1H)-one], the 50% inhibitory concentration (IC50) is 15 nM.

Consider `Cc1c(C#N)cccc1-n1c(=O)nc(N)c2ccc(OC(F)(F)F)cc21` [Example 158, 3-[4-amino-2-oxo-7-(trifluoromethoxy)quinazolin-1-yl]-2-methylbenzonitrile], for which the IC50 worked out at 25 nM. Take `Nc1nc(=O)n(-c2ccccc2Cl)c2nc(C3CC3)ccc12` (single isomer, unassigned) [Example 114, (+)-4-amino-1-(2-chlorophenyl)-7-cyclopropylpyrido[2,3-d]pyrimidin-2 (1H)-one]: the IC50 is below 13 nM. Turning to `Cc1c(C#N)cccc1-n1c(=O)nc(N)c2ccc(C3CC3)nc21` (single isomer, unassigned) [Example 145, (+)-3-(4-amino-7-cyclopropyl-2-oxopyrido[2,3-d]pyrimidin-1 (2H)-yl)-2-methylbenzonitrile], the IC50 was below 13 nM.

`CCc1ccc2c(N)nc(=O)n(-c3cccnc3C)c2c1` [Example 48, 4-amino-7-ethyl-1-(2-methylpyridin-3-yl)quinazolin-2(1H)-one]: the IC50 was below 13 nM.

For `Cn1nccc1-n1c(=O)nc(N)c2ccc(N3C[C@H]4CC[C@@H]3C4)nc21` (racemic) [Example 57, 4-amino-7-[(1SR,4RS)-3-azabicyclo[2.2.1]heptan-3-yl]-1-(2-methylpyrazol-3-yl)pyrido[2,3-d]pyrimidin-2-one], the half-maximal inhibitory concentration (IC50) is 150 nM.

`CC1COCC1n1c(=O)nc(N)c2ccc(C3CC3)nc21` (centres unmarked) [Example 28, 4-amino-7-cyclopropyl-1-(4-methyltetrahydro-furan-3-yl)pyrido[2,3-d]pyrimidin-2(1H)-one]: the IC50 stood at 57 nM. To `Cc1ncccc1-n1c(=O)nc(N)c2c(F)cc(C(F)(F)F)cc21` [Example 59, 4-amino-5-fluoro-1-(2-methylpyridin-3-yl)-7-(trifluoromethyl)quinazolin-2 (1H)-one] belongs 14 nM.
